{"source": "patent US11467160B2", "about": "“Method of therapy selection for patient suffering from glioblastoma” (INSERM (Institut National de la Santé et de la Recherche …, priority 2017, dated 2022)", "key": {"recurrent GBM patients": {"test_system": "recurrent GBM patients", "details": "Phase II, with temozolomide (Groves 2002); cited from earlier work"}, "GBM patients [1]": {"test_system": "GBM patients", "details": "phase III clinical trial (Levin 2006); cited from earlier work"}, "[2]": {"test_system": "CD90-expressing parental U251 cells", "experiment": "Boyden chamber migration assay, parental U251 cells", "format": "cell-based, human", "details": "for U251 cell migration: 10 μM inhibitor, 15 minutes pre-incubation, kept during 24-hours Boyden chamber assay", "method": "(§1) FIG. 3: CD90 signals through SRC, FAK and RhoA molecules and CD90 dependent migration is blocked by dasatinib in vitro and in vivo. Parental (wt), control (shCTR #), CD90-down expressing (shCD90 #, n=3) U251 cells; as well as parental (wt), control (CTR #) and CD90 expressing (CD90 #, n=3) U87 cells were cultured at low cell density, lysed and analyzed by Western-blot for phosphoSRC, SRC, phosphoFAK, FAK and β-actin expression. Protein phosphorylation levels were calculated as described in Materials and Methods part (A). CD90low (black) and CD90high (blank) RNS (n=12, square symbol) and RADH (n=6, circle symbol) cells were analyzed by Western-blot for phosphoSRC, SRC, phosphoFAK, FAK and β-actin expression. Protein phosphorylation levels were calculated in (B). CD90-expressing parental U251 and CD90 #1 U87 cells were tested in a 24-hours Boyden chamber migration assay as described in FIG. 2 in the presence of DMSO (as control), PP2, dasatinib (both SRC inhibitors), Y15 (FAK inhibitor) and Y-27632 (ROCK inhibitor) (C). CD90-expressing parental U251 and CD90 #1 U87 cells were transfected without (siØ), with siRNA GL2 (control) or siRNA RhoA during 48 hours, and tested in a 24-hours Boyden chamber migration assay (D). RhoA expression was tested by Western-blot (D). Migration was given by the number of migrated cells obtained per field (C and D). CD90high RNS (n=4, square symbol) and RADH (n=4, circle symbol) cells were tested in a 24-hours Boyden chamber migration assay in the presence of DMSO or dasatinib (E). Representative fields are shown in (E). CD90 expressing U87 cells were orthotopically implanted in immunocompromised mice brain. One week after injection, mice were fed with control vehicle (n=7) or dasatinib (40 mg/kg/day, n=7) for 20 days. Control and dasatinib-treated mice were sacrificed 28 days after injection. Brains were collected and sections were analyzed after H&E staining (F). (*): p<0.05; (**): p<0.01; (***): p<0.001.\nBoyden chamber migration assay—Parental, controls and transfected U251 and U87 cell lines were washed in DMEM, placed in Boyden chambers (10^5 cells/chamber in DMEM) that were placed in DMEM 20% FBS and incubated at 37° C. for 24 hours. After 24 hours, Boyden chambers were washed in PBS and cells were fixed in PBS 0.5% paraformaldehyde. Non-migrated cells inside the chambers were removed and cells were then stained with Giemsa (RAL Diagnostics, Martillac, France). After washes in PBS, pictures of 5 different fields were taken. Migration was given by the mean of number of migrated cells observed per field. […]"}, "U87 CD90 cells [3]": {"test_system": "U87 CD90 cells", "experiment": "Boyden chamber migration assay, U87 CD90 cells", "format": "cell-based, human", "details": "for U87 CD90 cell migration: 10 μM inhibitor, 15 minutes pre-incubation, kept during 24-hours Boyden chamber assay", "method": "as §1\nPreparation of CD90 knocked-down U251 and CD90 expressing U87 GBM cell lines—U251 cells were transfected with pLKO.1-puro plasmids containing shRNA constructs targeting CD90 mRNA and targeting non-mammalian mRNA (Sigma-Aldrich) using the Lipofectamine 2000 reagent (Life Technologies, St Aubin, France) according to the manufactor's instructions. After one week of culture under the selective antibiotic puromycin used at 10 μg/ml, transfected U251 cells were amplified and then cloned in 96-well plates at 0.1 cell/well. CD90 knocked-down U251 cell lines were expanded and selected for their decreased expression of CD90. U87 cells were transfected with CD90 cDNA (GeneWiz, Sigma-Aldrich) cloned into the pLKO.1-puro plasmid with EcoRI and BamHI enzymes using the Lipofectamine 2000 reagent. […]"}, "[4]": {"test_system": "primary CD90high GBM lines", "experiment": "Boyden chamber migration assay, primary CD90high GBM lines (RNS and RADH)", "format": "cell-based, human", "details": "CD90high RNS (n=4) and RADH (n=4) cells, 24-hours Boyden chamber assay", "method": "FIG. 3: CD90 signals through SRC, FAK and RhoA molecules and CD90 dependent migration is blocked by dasatinib in vitro and in vivo. Parental (wt), control (shCTR #), CD90-down expressing (shCD90 #, n=3) U251 cells; as well as parental (wt), control (CTR #) and CD90 expressing (CD90 #, n=3) U87 cells were cultured at low cell density, lysed and analyzed by Western-blot for phosphoSRC, SRC, phosphoFAK, FAK and β-actin expression. Protein phosphorylation levels were calculated as described in Materials and Methods part (A). CD90low (black) and CD90high (blank) RNS (n=12, square symbol) and RADH (n=6, circle symbol) cells were analyzed by Western-blot for phosphoSRC, SRC, phosphoFAK, FAK and β-actin expression. Protein phosphorylation levels were calculated in (B). […] Brains were collected and sections were analyzed after H&E staining (F). […]\nTumor specimens and cell culture—GBM samples were obtained after informed consent from patients admitted to the neurosurgery department at Rennes University Hospital for surgical resection in accordance with the local ethic committee. […] The extent of surgery was evaluated with an enhanced magnetic resonance imaging (MRI) performed within 24 hours after the resection. […]"}, "U87 CD90 cells [5]": {"test_system": "U87 CD90 cells", "experiment": "Orthotopic xenograft mouse model with U87 CD90 cells", "format": "in vivo, mice", "method": "as §1, with “CD90high RNS (n=4, square symbol) and RADH (n=4, circle symbol) cells were tested in a 24-hours Boyden chamber migration assay in the presence of DMSO or dasatinib (E). Representative fields are shown in (E). CD90 expressing U87 cells were orthotopically implanted in immunocompromised mice brain. One week after injection, mice were fed with control vehicle (n=7) or dasatinib (40 mg/kg/day, n=7) for 20 days. Control and dasatinib-treated mice were sacrificed 28 days after injection.” left out, “(*): p<0.05; (**): p<0.01; (***): p<0.001.” left out\nOrthotopic mouse model—Eight-weeks old male Balb/c NOD-SCID mice (Janvier, Saint Berthevin, France) were housed in an animal care unit authorized by the French Ministries of Agriculture and Research (Biosit, Rennes, France—Agreement No. B35-238-40). […] Mice were daily clinically monitored and sacrificed 28 days after implantation. […] Tumor burden was compared in the different groups of mice and analyzed using ImageJ software. […]\nTo evaluate the CD90-dependent effects of dasatinib in vivo, U87 CD90 cells were used in an orthotopic xenograft mouse model. […] Mice were analyzed using MRI 28 days post-injection and were sacrificed. […]"}, "CD90high RNS cells": {"test_system": "CD90high RNS cells", "experiment": "Viability of CD90high RNS cells", "format": "cell-based, human"}, "[6]": {"test_system": "bevacizumab-treated recurrent GBM patients", "details": "phase II trial (Lassman 2015); cited from earlier work"}, "glioma cell invasion": {"test_system": "glioma cell invasion", "details": "preclinical phase; cited from earlier work"}, "GBM patients [7]": {"test_system": "GBM patients", "details": "combined with temozolomide (Stupp 2014); cited from earlier work"}, "[8]": {"details": "dasatinib 40 mg/kg fed daily for 20 days from one week post-implantation, 28 days post-injection"}, "[9]": {"details": "1 μM, 24-hours Boyden chamber assay"}}, "note": "Entries after “also recorded” stand apart in the source; their conditions may differ.", "data": [{"smiles": "CNC(=O)[C@@H](NC(=O)[C@H](CC(C)C)[C@H](O)C(=O)NO)C(C)(C)C", "note": "[marimastat]", "values": [{"measurement": "Effects on recurrent GBM patients", "setting": "recurrent GBM patients", "result": "encouraging effects"}, {"measurement": "Patient survival", "setting": "GBM patients [1]", "result": "failed to improve"}]}, {"smiles": "C[C@@H](N)[C@H]1CC[C@H](C(=O)Nc2ccncc2)CC1", "note": "[Y27632]", "values": [{"measurement": "inhibition at 10 µM", "setting": "[2]; Homo sapiens, U-251, U251 cells, 10 μM, 24-hours Boyden chamber assay, read-out: Migration inhibition (reduction)", "result": 53, "unit": "%"}, {"measurement": "inhibition at 10 µM", "setting": "U87 CD90 cells [3]; Homo sapiens, U87 CD90 cells, 10 μM, 24-hours Boyden chamber assay, read-out: Migration inhibition (reduction)", "result": 76, "unit": "%"}]}, {"smiles": "Cc1nc(Nc2ncc(C(=O)Nc3c(C)cccc3Cl)s2)cc(N2CCN(CCO)CC2)n1", "note": "[dasatinib, N-(2-chloro-6-methylphenyl)-2-[[6-[4-(2-hydroxyethyl)piperazin-1-yl]-2-methylpyrimidin-4-yl]amino]-1,3-thiazole-5-carboxamide]", "values": [{"measurement": "U251 cell migration", "setting": "[2]", "result": "dramatically reduced"}, {"measurement": "U87 CD90 cell migration", "setting": "U87 CD90 cells [3]", "result": "dramatically reduced"}, {"measurement": "Migration of primary CD90high GBM lines", "setting": "[4]", "result": "dramatically reduced"}, {"measurement": "CD90 tumor migration/invasion properties in vivo", "setting": "U87 CD90 cells [5]; U87 CD90 orthotopic xenograft, dasatinib 40 mg/kg", "result": "dramatically reduces; also recorded: blocks; also recorded: inhibits"}, {"measurement": "Mice with clear encapsulated tumors with regular edges, H&E staining", "setting": "U87 CD90 cells [5]; [8]", "result": "4 out of 7"}, {"measurement": "Mice with clear encapsulated tumors with regular edges, MRI", "setting": "U87 CD90 cells [5]; [8]", "result": "3 out of 4"}, {"measurement": "Viability of CD90high RNS cells", "setting": "CD90high RNS cells", "result": "affects viability"}, {"measurement": "Improvement of bevacizumab-treated recurrent GBM patients", "setting": "[6]", "result": "failed to improve"}, {"measurement": "Inhibiting bevacizumab-induced glioma cell invasion", "setting": "glioma cell invasion", "result": "promising effect"}]}, {"smiles": "CC(C)(C)n1nc(-c2ccc(Cl)cc2)c2c(N)ncnc21", "note": "[PP2]", "values": [{"measurement": "U251 cell migration", "setting": "[2]", "result": "dramatically reduced"}, {"measurement": "U87 CD90 cell migration", "setting": "U87 CD90 cells [3]", "result": "dramatically reduced"}]}, {"smiles": "CC(C)[C@H]1C(=O)N[C@@H](CCCN=C(N)N)C(=O)NCC(=O)N[C@@H](CC(=O)O)C(=O)N[C@H](Cc2ccccc2)C(=O)N1C", "note": "[Cilengitide]", "values": [{"measurement": "Effects on GBM patients", "setting": "GBM patients [7]", "result": "limited effects"}]}, {"smiles": "Cl.Cl.Cl.Cl.Nc1cc(N)c(N)cc1N", "note": "[Y15]", "values": [{"measurement": "Effect on the migration of U251 cells", "setting": "[2]; [9]", "result": "no or limited effect"}, {"measurement": "Effect on the migration of U87 CD90 cells", "setting": "U87 CD90 cells [3]; [9]", "result": "no or limited effect"}]}]}
